# Results from ChEMBL document CHEMBL3390848, “Affinity selection and sequence-activity relationships of HIV-1 membrane fusion inhibitors directed at the drug-resistant variants” (Medchemcomm, 2010).
# Residues, ends and D or L forms follow the SMILES beside them.
# What was measured:
# [1] = system: Human immunodeficiency virus 1; assay: Antiviral activity against HIV1 NL4-3 harboring gp41 D36G mutant infected in human HeLa cells expressing CD4-LTR-beta-gal assessed as inhibition of viral replication after 48 hrs by MAGI assay; type: functional, organism-based
# [2] = system: Human immunodeficiency virus 1; assay: Binding affinity to HIV1 His-tagged N-terminal heptad repeat of envelope glycoprotein gp41 assessed as recovery of N36-drug complex after 2 hrs by LC-MS analysis; set-up: concentration or dose not given beside the values
# [3] = system: Human immunodeficiency virus 1; assay: Thermal stability of HIV1 envelope glycoprotein gp41 His-tagged N-terminal heptad repeat N36-drug complex assessed as thermal unfolding transition state by measuring molar ellipticity at 4 to 90 degC by circular dichroic spectra analysis
structure (smiles),measurement,setting,value
CC[C@H](C)[C@H](NC(=O)[C@H](CC(C)C)NC(=O)[C@H](CCC(=O)O)NC(=O)[C@H](CCC(=O)O)NC(=O)[C@@H](NC(=O)[C@H](CCCCN)NC(=O)[C@H](CCCCN)NC(=O)[C@@H](NC(=O)[C@H](Cc1ccc(O)cc1)NC(=O)[C@H](CCC(=O)O)NC(=O)[C@H](CCC(=O)O)NC(=O)[C@@H](NC(=O)[C@H](CCCCN)NC(=O)[C@H](CCCCN)NC(=O)[C@H](CC(=O)O)NC(=O)[C@H](Cc1c[nH]c2ccccc12)NC(=O)[C@H](CCC(=O)O)NC(=O)[C@H](CCC(=O)O)NC(=O)[C@H](Cc1c[nH]c2ccccc12)NC(C)=O)[C@@H](C)CC)[C@@H](C)O)[C@@H](C)CC)C(=O)N[C@@H](CCCCN)C(=O)N[C@@H](CCCCN)C(=O)N[C@@H](CO)C(=O)N[C@@H](CCC(=O)O)C(=O)N[C@@H](CCC(=O)O)C(=O)N[C@H](C(=O)N[C@@H](CCC(N)=O)C(=O)N[C@@H](CCCCN)C(=O)N[C@@H](CCCCN)C(=O)N[C@@H](CC(N)=O)C(=O)N[C@@H](CCC(=O)O)C(=O)N[C@@H](CCC(=O)O)C(=O)N[C@@H](CCC(=O)O)C(=O)N[C@@H](CC(C)C)C(=O)N[C@@H](CCCCN)C(=O)N[C@@H](CCCCN)C(N)=O)C(C)C (Ac-WEEWDKKIEEYTKKIEELIKKSEEVQKKNEEELKK-NH2),EC50,[1],2.2 nM
same,Activity,[2],6.2%
same,Tm,[3],77.7 °C
CC[C@H](C)[C@H](NC(=O)[C@H](CC(C)C)NC(=O)[C@H](CCC(=O)O)NC(=O)[C@H](CCC(=O)O)NC(=O)[C@@H](NC(=O)[C@H](CCCCN)NC(=O)[C@H](CCCCN)NC(=O)[C@@H](NC(=O)[C@H](Cc1ccc(O)cc1)NC(=O)[C@H](CCC(=O)O)NC(=O)[C@H](CCC(=O)O)NC(=O)[C@@H](NC(=O)[C@H](CCCCN)NC(=O)[C@H](CCCCN)NC(=O)[C@H](CC(=O)O)NC(=O)[C@H](Cc1c[nH]c2ccccc12)NC(=O)[C@H](CCC(=O)O)NC(=O)[C@H](CCC(=O)O)NC(=O)[C@H](Cc1c[nH]c2ccccc12)NC(C)=O)[C@@H](C)CC)[C@@H](C)O)[C@@H](C)CC)C(=O)N[C@@H](CCCCN)C(=O)N[C@@H](CCCCN)C(=O)N[C@@H](CO)C(=O)N[C@@H](CCC(=O)O)C(=O)N[C@@H](CCC(=O)O)C(=O)N[C@@H](Cc1c[nH]c2ccccc12)C(=O)N[C@@H](CCC(N)=O)C(=O)N[C@@H](CCCCN)C(=O)N[C@@H](CCCCN)C(=O)N[C@@H](CC(N)=O)C(=O)N[C@@H](CCC(=O)O)C(=O)N[C@@H](CCC(=O)O)C(=O)N[C@@H](CCC(=O)O)C(=O)N[C@@H](CC(C)C)C(=O)N[C@@H](CCCCN)C(=O)N[C@@H](CCCCN)C(N)=O (Ac-WEEWDKKIEEYTKKIEELIKKSEEWQKKNEEELKK-NH2),EC50,[1],1.7 nM
same,Activity,[2],7.1%
same,Tm,[3],77.1 °C
CC[C@H](C)[C@H](NC(=O)[C@H](CC(C)C)NC(=O)[C@H](CCC(=O)O)NC(=O)[C@H](CCC(=O)O)NC(=O)[C@@H](NC(=O)[C@H](CCCCN)NC(=O)[C@H](CCCCN)NC(=O)[C@@H](NC(=O)[C@H](Cc1ccc(O)cc1)NC(=O)[C@H](CCC(=O)O)NC(=O)[C@H](CCC(=O)O)NC(=O)[C@@H](NC(=O)[C@H](CCCCN)NC(=O)[C@H](CCCCN)NC(=O)[C@H](CC(=O)O)NC(=O)[C@H](Cc1c[nH]c2ccccc12)NC(=O)[C@H](CCC(=O)O)NC(=O)[C@H](CCC(=O)O)NC(=O)[C@H](Cc1c[nH]c2ccccc12)NC(C)=O)[C@@H](C)CC)[C@@H](C)O)[C@@H](C)CC)C(=O)N[C@@H](CCCCN)C(=O)N[C@@H](CCCCN)C(=O)N[C@@H](CO)C(=O)N[C@@H](CCC(=O)O)C(=O)N[C@@H](CCC(=O)O)C(=O)N[C@@H](CCC(=O)O)C(=O)N[C@@H](CCC(N)=O)C(=O)N[C@@H](CCCCN)C(=O)N[C@@H](CCCCN)C(=O)N[C@@H](CC(N)=O)C(=O)N[C@@H](CCC(=O)O)C(=O)N[C@@H](CCC(=O)O)C(=O)N[C@@H](CCC(=O)O)C(=O)N[C@@H](CC(C)C)C(=O)N[C@@H](CCCCN)C(=O)N[C@@H](CCCCN)C(N)=O (Ac-WEEWDKKIEEYTKKIEELIKKSEEEQKKNEEELKK-NH2),EC50,[1],2.4 nM
same,Activity,[2],4.3%
same,Tm,[3],76.2 °C
CC[C@H](C)[C@H](NC(=O)[C@H](CC(C)C)NC(=O)[C@H](CCC(=O)O)NC(=O)[C@H](CCC(=O)O)NC(=O)[C@@H](NC(=O)[C@H](CCCCN)NC(=O)[C@H](CCCCN)NC(=O)[C@@H](NC(=O)[C@H](Cc1ccc(O)cc1)NC(=O)[C@H](CCC(=O)O)NC(=O)[C@H](CCC(=O)O)NC(=O)[C@@H](NC(=O)[C@H](CCCCN)NC(=O)[C@H](CCCCN)NC(=O)[C@H](CC(=O)O)NC(=O)[C@H](Cc1c[nH]c2ccccc12)NC(=O)[C@H](CCC(=O)O)NC(=O)[C@H](CCC(=O)O)NC(=O)[C@H](Cc1c[nH]c2ccccc12)NC(C)=O)[C@@H](C)CC)[C@@H](C)O)[C@@H](C)CC)C(=O)N[C@@H](CCCCN)C(=O)N[C@@H](CCCCN)C(=O)N[C@@H](CO)C(=O)N[C@@H](CCC(=O)O)C(=O)N[C@@H](CCC(=O)O)C(=O)N[C@@H](Cc1ccc(O)cc1)C(=O)N[C@@H](CCC(N)=O)C(=O)N[C@@H](CCCCN)C(=O)N[C@@H](CCCCN)C(=O)N[C@@H](CC(N)=O)C(=O)N[C@@H](CCC(=O)O)C(=O)N[C@@H](CCC(=O)O)C(=O)N[C@@H](CCC(=O)O)C(=O)N[C@@H](CC(C)C)C(=O)N[C@@H](CCCCN)C(=O)N[C@@H](CCCCN)C(N)=O (Ac-WEEWDKKIEEYTKKIEELIKKSEEYQKKNEEELKK-NH2),EC50,[1],2.2 nM
same,Activity,[2],5.5%
same,Tm,[3],76.3 °C
CC[C@H](C)[C@H](NC(=O)[C@H](CC(C)C)NC(=O)[C@H](CCC(=O)O)NC(=O)[C@H](CCC(=O)O)NC(=O)[C@@H](NC(=O)[C@H](CCCCN)NC(=O)[C@H](CCCCN)NC(=O)[C@@H](NC(=O)[C@H](Cc1ccc(O)cc1)NC(=O)[C@H](CCC(=O)O)NC(=O)[C@H](CCC(=O)O)NC(=O)[C@@H](NC(=O)[C@H](CCCCN)NC(=O)[C@H](CCCCN)NC(=O)[C@H](CC(=O)O)NC(=O)[C@H](Cc1c[nH]c2ccccc12)NC(=O)[C@H](CCC(=O)O)NC(=O)[C@H](CCC(=O)O)NC(=O)[C@H](Cc1c[nH]c2ccccc12)NC(C)=O)[C@@H](C)CC)[C@@H](C)O)[C@@H](C)CC)C(=O)N[C@@H](CCCCN)C(=O)N[C@@H](CCCCN)C(=O)N[C@@H](CO)C(=O)N[C@@H](CCC(=O)O)C(=O)N[C@@H](CCC(=O)O)C(=O)N[C@@H](C)C(=O)N[C@@H](CCC(N)=O)C(=O)N[C@@H](CCCCN)C(=O)N[C@@H](CCCCN)C(=O)N[C@@H](CC(N)=O)C(=O)N[C@@H](CCC(=O)O)C(=O)N[C@@H](CCC(=O)O)C(=O)N[C@@H](CCC(=O)O)C(=O)N[C@@H](CC(C)C)C(=O)N[C@@H](CCCCN)C(=O)N[C@@H](CCCCN)C(N)=O (Ac-WEEWDKKIEEYTKKIEELIKKSEEAQKKNEEELKK-NH2),EC50,[1],1.6 nM
same,Activity,[2],6.6%
same,Tm,[3],76.1 °C
CC[C@H](C)[C@H](NC(=O)[C@H](CC(C)C)NC(=O)[C@H](CCC(=O)O)NC(=O)[C@H](CCC(=O)O)NC(=O)[C@@H](NC(=O)[C@H](CCCCN)NC(=O)[C@H](CCCCN)NC(=O)[C@@H](NC(=O)[C@H](Cc1ccc(O)cc1)NC(=O)[C@H](CCC(=O)O)NC(=O)[C@H](CCC(=O)O)NC(=O)[C@@H](NC(=O)[C@H](CCCCN)NC(=O)[C@H](CCCCN)NC(=O)[C@H](CC(=O)O)NC(=O)[C@H](Cc1c[nH]c2ccccc12)NC(=O)[C@H](CCC(=O)O)NC(=O)[C@H](CCC(=O)O)NC(=O)[C@H](Cc1c[nH]c2ccccc12)NC(C)=O)[C@@H](C)CC)[C@@H](C)O)[C@@H](C)CC)C(=O)N[C@@H](CCCCN)C(=O)N[C@@H](CCCCN)C(=O)N[C@@H](CO)C(=O)N[C@@H](CCC(=O)O)C(=O)N[C@@H](CCC(=O)O)C(=O)N[C@@H](Cc1ccccc1)C(=O)N[C@@H](CCC(N)=O)C(=O)N[C@@H](CCCCN)C(=O)N[C@@H](CCCCN)C(=O)N[C@@H](CC(N)=O)C(=O)N[C@@H](CCC(=O)O)C(=O)N[C@@H](CCC(=O)O)C(=O)N[C@@H](CCC(=O)O)C(=O)N[C@@H](CC(C)C)C(=O)N[C@@H](CCCCN)C(=O)N[C@@H](CCCCN)C(N)=O (Ac-WEEWDKKIEEYTKKIEELIKKSEEFQKKNEEELKK-NH2),EC50,[1],2.6 nM
same,Activity,[2],5.7%
same,Tm,[3],76.7 °C
CC[C@H](C)[C@H](NC(=O)[C@H](CC(C)C)NC(=O)[C@H](CCC(=O)O)NC(=O)[C@H](CCC(=O)O)NC(=O)[C@@H](NC(=O)[C@H](CCCCN)NC(=O)[C@H](CCCCN)NC(=O)[C@@H](NC(=O)[C@H](Cc1ccc(O)cc1)NC(=O)[C@H](CCC(=O)O)NC(=O)[C@H](CCC(=O)O)NC(=O)[C@@H](NC(=O)[C@H](CCCCN)NC(=O)[C@H](CCCCN)NC(=O)[C@H](CC(=O)O)NC(=O)[C@H](Cc1c[nH]c2ccccc12)NC(=O)[C@H](CCC(=O)O)NC(=O)[C@H](CCC(=O)O)NC(=O)[C@H](Cc1c[nH]c2ccccc12)NC(C)=O)[C@@H](C)CC)[C@@H](C)O)[C@@H](C)CC)C(=O)N[C@@H](CCCCN)C(=O)N[C@@H](CCCCN)C(=O)N[C@@H](CO)C(=O)N[C@@H](CCC(=O)O)C(=O)N[C@@H](CCC(=O)O)C(=O)N[C@@H](CCSC)C(=O)N[C@@H](CCC(N)=O)C(=O)N[C@@H](CCCCN)C(=O)N[C@@H](CCCCN)C(=O)N[C@@H](CC(N)=O)C(=O)N[C@@H](CCC(=O)O)C(=O)N[C@@H](CCC(=O)O)C(=O)N[C@@H](CCC(=O)O)C(=O)N[C@@H](CC(C)C)C(=O)N[C@@H](CCCCN)C(=O)N[C@@H](CCCCN)C(N)=O (Ac-WEEWDKKIEEYTKKIEELIKKSEEMQKKNEEELKK-NH2),EC50,[1],2 nM
same,Activity,[2],6%
same,Tm,[3],80.2 °C
